According to PMC9394549 (Nature, 2022):

Target: T1, GAT2 (Homo sapiens, UniProt Q9NSD5)
T1 sequence (Q9NSD5 1-602): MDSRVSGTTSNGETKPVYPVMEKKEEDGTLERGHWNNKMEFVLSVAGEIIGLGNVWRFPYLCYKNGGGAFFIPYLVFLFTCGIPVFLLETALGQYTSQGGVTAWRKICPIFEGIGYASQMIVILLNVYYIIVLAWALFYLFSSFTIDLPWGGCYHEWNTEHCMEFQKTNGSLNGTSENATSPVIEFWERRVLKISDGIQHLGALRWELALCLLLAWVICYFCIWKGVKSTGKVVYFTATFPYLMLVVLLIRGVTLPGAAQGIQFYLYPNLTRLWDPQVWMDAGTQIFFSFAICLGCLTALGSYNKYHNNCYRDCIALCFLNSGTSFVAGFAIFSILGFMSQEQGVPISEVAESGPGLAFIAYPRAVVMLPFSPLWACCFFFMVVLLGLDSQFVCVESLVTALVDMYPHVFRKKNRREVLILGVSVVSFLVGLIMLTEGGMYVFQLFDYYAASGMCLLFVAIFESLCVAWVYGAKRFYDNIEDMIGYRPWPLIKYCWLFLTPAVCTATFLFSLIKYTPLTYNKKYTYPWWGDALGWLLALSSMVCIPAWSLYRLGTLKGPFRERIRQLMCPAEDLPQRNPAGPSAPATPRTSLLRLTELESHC
Assay: [3H]-GABA uptake in transfected HEK293S GnTI− cells
Format: cell-based

NCCCC(=O)O [GABA]
[3H]-GABA uptake in transfected HEK293S GnTI- cells: Specific uptake of [^3H]-GABA in HEK293S cells expressing wild-type GAT1, wild-type GAT2
